Patent US20230107216A1, “PANTETHEINE DERIVATIVES AND USES THEREOF” (Comet Therapeutics, Inc., priority 2018, published 2023)

Columns and labels:
[1] = test system: Coronary artery smooth muscle cells (CASM3C system); test: BioMAP CASM3C system (IL-1β, TNFα, IFNγ); assay type: cell-based, human; settings: for inhibition at 10 µM: Homo sapiens, 24 h, read-out: % decrease in Thrombomodulin
[2] = test system: Bronchial epithelial cells (BE3C system); test: BioMAP BE3C system (IL-1β, TNFα, IFNγ); assay type: cell-based, human; settings: procedure of Example 831
[3] = test system: tyrosine hydroxylase positive mesencephalic neurons injured by 6-OHDA; test: Neuroprotective effect on damage induced by 6-OHDA on culture of mesencephalic neurons; assay type: cell-based; settings: Rattus norvegicus, Neuron, 6-OHDA 15 μM, 48h, read-out: % reversion of TH positive neurons (6-OHDA-mediated degradation of dopaminergic neurons)
Protocol: The protective effect of compounds of the present disclosure was determined on 6-OHDA-mediated injury on mesencephalon neuronal cultures.
A female Wistar rat (Janvier; France) of 15 days gestation was terminated by cervical dislocation, the fetuses were removed from the uterus and their brains were harvested and placed in ice-cold medium (Leibovitz's L15 medium, Gibco). Only ventral mesencephalic flexure was used for the cell preparations. The midbrain was dissociated by trypsinization. The reaction was stopped, and the suspension was triturated and centrifuged. The pellet of dissociated cells was resuspended in chemically defined medium consisted of Neurobasal (Gibco, 21103049), containing B27 supplement (Gibco, A3582801) and L-glutamine (Gibco, 25030081), 10 ng/ml (BDNF; Pepro Tech, France, 450-02) and 1 ng/ml (GDNF; Pepro Tech, 450-51).
Viable primary rat embryo mesencephalic cells were counted and seeded on 96-multi-wells plate precoated with poly-L-lysine. Cells were maintained in a humidified incubator at 37° C. in 5% CO2-95% air atmosphere and medium changed on day 2. On day 6, the culture medium was removed and replaced by new media without neurotrophic factors containing the compounds of the present disclosure (50-10 μM) or vehicle (0.1% DMSO). After 1h exposure, injury of mesencephalon neuronal cultures was induced by 6-OHDA (15 μM) for further 48h. A mixture of the growth factors GDNF (1 ng/ml) and BDNF (10 ng/ml) were used as reference compound. On day 8, the tyrosine hydroxylase positive neurons were evaluated. Cultures were fixed 30 min at 4° C. with paraformaldehyde in PBS (4%, Sigma). After, cells were permeabilized with 0.1% Triton X100 for 30 min, saturated with PBS containing 3% of BSA (bovine serum albumin) and incubated 2h with anti-tyrosine hydroxylase antibody (Sigma, 1:10000; clone TH-2) at 1/10000 in PBS containing 0.5% of BSA. Cells were washed three times with PBS containing 0.5% of BSA and incubated 1h with goat anti mouse antibody coupled with AF488 (Invitrogen A11001) diluted at 1/1000 in PBS containing 0.5% of BSA. Finally, nuclei were stained with DAPI (Thermo fisher, D1306) at 1/1000 in PBS containing 0.5% of BSA. After rinsing with PBS, the plate was visualized and examined with Cell Insight HCS (Thermo Scientific) to determine the number of tyrosine hydroxylase positive cells per well.
The results for each well were expressed as a percentage by setting the density of tyrosine hydroxylase positive cells under control conditions to 100%. Then the result for each condition was reported as mean±SEM from 4 independent cultures.
A global analysis of the data was performed using a one-way analysis of variance (ANOVA), followed by Fisher's Protected Least Significant Difference when applicable. The level of significance was set to p<0.05.

[4] = test system: Subnormal activation of pyruvate dehydrogenase complex (PDH) primary fibroblasts GM01503 (GM1503A); test: Total NAD+ + NADH and NAD+ (NAD/NADH-Glo), PDH fibroblasts GM01503; assay type: cell-based; settings: Homo sapiens, Fibroblast, PDH GM1503A P10, assay condition B, 24h, read-out: Increase in Total NAD+ + NADH
Protocol: Primary adherent fibroblasts were cultured in minimum essential medium (MEM) (Gibco, 25030081) supplemented with 2 mM L-Glutamine (Gibco, 25030081), 15% fetal bovine serum (FBS) (Gibco, 26400044) and 1% penicillin/streptomycin (Gibco, 5140122) at 37° C. and 5% CO2. Cells were collected for either passaging or experiment at ˜70-80% confluence. Cells were obtained by trypsinization and seeded in cell culture microplates either white plate (Thermo Fisher Scientific, 152028) for luminescent measurement or black plate (Thermo Fisher Scientific, 165305) for fluorescent based read out for different assays listed below. Cells were obtained by trypsinization and […] were seeded and allowed to adhere for 16-18 hours to have confluency around 70-80% in the cell well with culture media. After 24 hours prior to measurements (37° C., 5% CO2) media was changed to Dulbecco's Modified Eagle Medium (DMEM, Agilent Seahorse cat #103575-100) with the appropriate supplements as stated below.
Primary fibroblasts assayed were Propionic Acidemia (PA) (GM03590 Coriell Institute for Medical Research, Tsi 6337 Trans-Hit Bio), Methylmalonic Acidemia (MMA) (Tsi 5224 Trans-Hit Bio), Subnormal activation of pyruvate dehydrogenase complex (PDH) (GM01503 Coriell Institute for Medical Research), Very long-chain acyl-CoA dehydrogenase (VLCAD) (GM17475), Leigh Syndrome (LS) (GM03672, GM13411 Coriell Institute for Medical Research), Pyruvate Carboxylase Deficiency (PC) (GM00444 Coriell Institute for Medical Research). 10 μM of Compounds were added for 2 hours in PA, MMA lines and for 24h for the other fibroblast lines.
Assay was performed according to manufacturer instructions (NAD/NADH-Glo Assay Promega, G9072). The NAD/NADH-Glo Assay is a bioluminescent assay for detecting total oxidized and reduced nicotinamide adenine dinucleotides (NAD+ and NADH, respectively) from which ratio of NAD/NADH can be calculated. Briefly, for every assay a 12-point standard curve was prepared ranging from 400 nM to 0.625 nM. Media was removed and replaced with 50 μl of PBS for both assays.
For individual NAD+ and NADH measurement, 50 μl of 1% DTAB (Sigma Cat #D5047) (cell lysis reagent) in 0.2N NaOH was added to the plate and a total 100 μl of lysate was split into two plates with 50 μl each. 25 μl of 0.4N HCl were added to the NAD+ plate and both NAD+ and NADH plate were heated at 60° C. for 15 minutes. The acid and heat treatment destroyed NADH allowing individual NAD+ measurement while heating in basic conditions destroys NAD+ allowed individual NADH measurements. The plates were allowed to come to room temperature for 10 minutes and Trizma base (Sigma, T1699) was added to the NAD+ plate to neutralize the acid and HCl Trizma hydrochloride (Sigma, T2694) was added to the NADH plate. The NADNADH glo reagent was prepared by adding: 625 μl of NAD cycling substrate, 125 μl of reductase, 125 μl of reductase substrate, 125 μl NAD cycling enzyme to total of the 25 ml of NAD GLO reagent. 1:1 ratio of total volume of reagent was added to the individual NAD+, NADH measurement (total 100 μl) and 50 μl for total NAD/NAH measurement. Luminescence was read between 30-60 minutes within the linear range.
A total dead cell count was performed as described in Example 817 and only alive cells were used for analysis.

[5] = 10 uM, procedure of Example 832
[6] = Homo sapiens, Epithelial cell, 24 h, 10 uM, read-out: % decrease in MMP-1

COC(=O)CC(SCCNC(=O)CCNC(=O)[C@H](O)C(C)(C)COC(C)=O)C(=O)OC (stereo partly drawn) [Compound 149, 1,4-dimethyl 2-[(2-[3-[(2R)-4-(acetyloxy)-2-hydroxy-3,3-dimethylbutanamido]propanamido]ethyl)sulfanyl]butanedioate]
% increase in IL-6 [1, 5]: ≥10% | inhibition at 10 µM ([1]; 10 uM): ≥ 10% | % decrease in tPA ([2]; 10 uM): ≥10%

C[C@@H](O)CC(=O)SCCNC(=O)CCNC(=O)[C@H](O)C(C)(C)CO [Compound 38, S-2-{3-[(R)-2,4-dihydroxy-3,3-dimethylbutyrylamino]propionylamino} ethyl (R)-3-hydroxybutanethioate]
inhibition at 10 µM [3]: ≥ 30%

CC(C)(COC(=O)OCC[N+](C)(C)C)[C@@H](O)C(=O)NCCC(=O)NCCSC(=O)CCC(=O)O [Compound 116, [2-([[(3R)-3-[[2-([2-[(3-carboxypropanoyl)sulfanyl]ethyl]carbamoyl)ethyl]carbamoyl]-3-hydroxy-2,2-dimethylpropoxy]carbonyl]oxy)ethyl]trimethylazanium]
% decrease in Proliferation ([1]; 1 uM, procedure of Example 832): ≥10% | inhibition at 10 µM [3]: ≥ 30%

C[C@H](O)CC(=O)CC(=O)SCCNC(=O)CCNC(=O)[C@H](O)C(C)(C)CO [Compound 1306, (2R)-2,4-dihydroxy-N-[2-[(2-[[(5S)-5-hydroxy-3-oxohexanoyl]sulfanyl]ethyl)carbamoyl]ethyl]-3,3-dimethylbutanamide]
activation at 10 µM [4]: ≥ 10%

CC(C)(CO)[C@@H](O)C(=O)NCCC(=O)NCCSC(=O)CCC(=O)O [Compound 1, (R)-4-((2-(3-(2,4-dihydroxy-3,3-dimethylbutanamido)propanamido)ethyl)thio)-4-oxobutanoic acid]
inhibition at 10 µM [3]: ≥ 10%

COC(=O)CCC(=O)SCCNC(=O)CCNC(=O)[C@H](OC(=O)CNC(C)=O)C(C)(C)CO [Compound 1298, methyl 4-[(2-[3-[(2R)-2-[(2-acetamidoacetyl)oxy]-4-hydroxy-3,3-dimethylbutanamido]propanamido]ethyl)sulfanyl]-4-oxobutanoate]
% decrease in uPAR ([1]; 1 uM): ≥10% | % decrease in LDLR ([1]; 1 uM, procedure of Example 832): ≥10% | % decrease in VCAM-1 ([1]; 1 uM, procedure of Example 832): ≥10% | % increase in Proliferation [1, 5]: ≥10% | inhibition at 10 µM ([1]; 10 uM): ≥ 20% | inhibition at 10 µM [2, 6]: ≥ 10%

CC(C)(CO)[C@@H](O)C(=O)NCCC(=O)NCCSC(=O)[C@@H](N)Cc1ccc(O)c(O)c1 [Compound 371, (2R)—N-[2-[(2-[[(2S)-2-amino-3-(3,4-dihydroxyphenyl)propanoyl]sulfanyl]ethyl)carbamoyl]ethyl]-2,4-dihydroxy-3,3-dimethylbutanamide]
inhibition at 50 µM [3]: ≥ 30%

COC(=O)CCC(=O)SCCNC(=O)CCNC(=O)[C@H](OC(=O)CN)C(C)(C)CO [Compound 1294, methyl 4-[(2-[3-[(2R)-2-[(2-aminoacetyl)oxy]-4-hydroxy-3,3-dimethylbutanamido]propanamido]ethyl)sulfanyl]-4-oxobutanoate]
% decrease in Tissue Factor ([1]; 1 uM): ≥10% | % decrease in uPAR ([1]; 1 uM): ≥10% | % decrease in M-CSF ([1]; 1 uM, procedure of Example 832): ≥10% | % decrease in VCAM-1 ([1]; 1 uM, procedure of Example 832): ≥10% | % decrease in HLA-DR ([1]; 10 uM): ≥10% | inhibition at 10 µM ([1]; 10 uM): ≥ 20% | inhibition at 1 µM ([2]; Homo sapiens, Epithelial cell, 24 h, 1 uM, read-out: % decrease in MMP-1): ≥ 10%

COC(=O)CCC(=O)SCCNC(=O)CCNC(=O)[C@H](O)C(C)(C)COC(C)=O [Compound 138]
inhibition at 10 µM ([1]; 10 uM): ≥ 10% | % increase in MMP-9 ([2]; 1 uM): ≥10%

C[C@@H](O)CC(=O)CC(=O)SCCNC(=O)CCNC(=O)[C@H](O)C(C)(C)CO [Compound 42, (2R)-2,4-dihydroxy-N-[2-[(2-[[(5R)-5-hydroxy-3-oxohexanoyl]sulfanyl]ethyl)carbamoyl]ethyl]-3,3-dimethylbutanamide]
% increase in M-CSF [1, 5]: ≥10% | % increase in Proliferation [1, 5]: ≥10% | % decrease in Keratin 8/18 ([2]; 10 uM): ≥1.0% | % decrease in MMP-9 ([2]; 10 uM): ≥10% | % decrease in tPA ([2]; 10 uM): ≥10% | inhibition at 50 µM [3]: ≥ 30%

CC(C)(CO)[C@@H](O)C(=O)NCCC(=O)NCCSC(=O)CCCN [Compound 370, (2R)—N-[2-([2-[(4-aminobutanoyl)sulfanyl]ethyl]carbamoyl)ethyl]-2,4-dihydroxy-3,3-dimethylbutanamide]
inhibition at 50 µM [3]: ≥ 30%

CC(=O)SCCNC(=O)CCNC(=O)[C@H](O)C(C)(C)COC(=O)[C@@H](N)Cc1ccc(O)c(O)c1 [Compound 498, (3R)-3-[(2-[[2-(acetylsulfanyl)ethyl]carbamoyl]ethyl)carbamoyl]-3-hydroxy-2,2-dimethylpropyl (2S)-2-amino-3-(3,4-dihydroxyphenyl)propanoate]
% increase in IL-6 ([1]; 1 uM, procedure of Example 832): ≥10% | % increase in MMP-1 ([2]; 1 uM): ≥10% | % decrease in tPA ([2]; 10 uM): ≥10% | inhibition at 50 µM [3]: ≥ 30%

CCCCCCC(=O)SCCNC(=O)CCNC(=O)[C@H](O)C(C)(C)CO [Compound 372, (2R)—N-(2-[[2-(heptanoylsulfanyl)ethyl]carbamoyl]ethyl)-2,4-dihydroxy-3,3-dimethylbutanamide]
% decrease in LDLR ([1]; 1 uM, procedure of Example 832): ≥10% | % decrease in VCAM-1 ([1]; 1 uM, procedure of Example 832): ≥10% | inhibition at 10 µM ([1]; 10 uM): ≥ 10% | inhibition at 10 µM [2, 6]: ≥ 10%
